Values of other authors, collected in patent US20150051382A1 (CARDIOPEP PHARMA GMBH, priority 2010, published 2015).

Assays:
[1] = system: patients with chronic congestive heart failure; conditions: 15 ng/kg/min, 10-hour infusion
[2] = system: patients with moderate asthma affliction; conditions: brief infusion; healthy and diseased subjects
[3] = system: patients with chronic congestive heart failure

urodilatin
effect as compared to other natriuretic peptides, such as ANP (dogs): better effect
central venous pressure (CVP) ([1]; after 5 hours of infusion): increases slightly
urine flow ([1]; after 8 hours of infusion): loss of action
effect on bronchoconstriction [2]: temporary biological effect
changes of the baseline in pulmonary capillary wedge pressure (PCWP) ([3]; 15+30 ng/kg/min, compared with the placebo group): significant reductions
changes of the cardiac index (CI) ([3]; 15 and 30 ng/kg/min): significant increase
cardiac index (CI), reversal of effect ([3]; after 6 to 8 hours of infusion): partial drop of CI
pulmonary capillary wedge pressure (PCWP), reversal of effect ([3]; after 6 to 8 hours of infusion): slight increase of PCWP
symptoms, morbidity and mortality ([3]; all doses): significantly improved
acute survival rate and hospital dwelling time ([3]; human, in vivo): significantly and relevantly influenced
